{"source": "paper PMC5794198", "about": "“Inhibitors of Trypanosoma cruzi Sir2 related protein 1 as potential drugs against Chagas disease” (PLoS Neglected Tropical Diseases, 2018)", "key": {"[1]": {"tested_on": "T. cruzi Y strain (Luc+)", "experiment": "Mouse model of T. cruzi infection, bioluminescence imaging", "format": "in vivo, BALB/c mice", "conditions": "5 mg/kg/day intravenously for 4 consecutive days from day 7 of infection; listed as BNIPSpd (9)", "protocol": "To evaluate BNIPSpd (9) efficacy in vivo, five- to six-week-old female BALB/c mice (Charles River) and infected with T. cruzi trypomastigotes expressing luciferase. Parasites were collected from the supernatants of a monolayer of Vero infected cells, washed and suspended in PBS-glucose 0.2%, and injected intraperitoneally (1 x 10^4 per mouse). After 7 days of infection, mice were treated with drugs for 4 consecutive days orally with (benznidazole in 20% Kolliphor HS 15) or intravenously with (BNIPSpd (9) in 10% DMSO) at a dose of 100 or 5 mg/kg/day, respectively. Infection and treatment efficiency were evaluated following subcutaneous injection of 2.1 mg of luciferin and through live imaging using an IVIS Lumina LT (Perkin Elmer). Images of the animals were analysed using the Living Image software (Perkin Elmer).\nSupplementary file pntd.0006180.s006.tif: S5 Fig In vivo efficacy testing of BNIPSpd (9). A) Mice were infected with 10^4 Luc^+ trypomastigotes by intraperitoneal injection. […] In the lower panel, bioluminescence signal of whole mice represented in average radiance (photons/sec/cm^2/sr) quantified before and after treatment. […] B) Snapshot Pharmacokinetics of BNIPSpd (9) in BALB/c mice by quantification of BNIPSpd (9) in the blood of mice by UHPLC-MS/MS ESI+ at different time-points after administration of a 5 mg/kg dose by intravenous injection. […]"}, "[2]": {"tested_on": "T. cruzi epimastigotes, wild-type (WT)", "experiment": "T. cruzi epimastigote resazurin viability assay, wild-type", "format": "cell-based, Trypanosoma cruzi", "conditions": "CL-Brener, 64 h + 6 h resazurin; means ± SD (n = 4)", "protocol": "T. cruzi epimastigotes were seeded at 1.25 x 10^6 cells/mL in a 96-well plate in the presence of varying concentrations of test compounds. Following a 64-hour incubation, 15 μL of a resazurin solution (Sigma-Aldrich; 1.1 mg/mL in PBS). […] Each assay was performed in at least triplicate in parallel to the known trypanocidal agent nifurtimox."}, "[3]": {"experiment": "Solubility", "format": "physicochemical"}, "[4]": {"tested_on": "Neurons", "experiment": "MTT cytotoxicity on neurons", "format": "cell-based", "protocol": "(§1) To evaluate toxicity towards mammalian cell lines (hepatocytes (Seralab), neurons and MDCK cells (ATCC); a renal cell line from dogs), all the compounds were assayed with MTT [66]. Additionally, for cardiotoxicity evaluation, where toxic effects in cardiomyocytes could be affecting their function before being lethal, a hERG assay was performed according to the manufacturer’s protocol Predictor hERG Fluorescence Polarization Assay (Invitrogen). Briefly, inhibition of hERG channel was analysed by competition of BNIPSpd and a high-affinity red fluorescent hERG channel ligand. BNIPSpd (9) was mixed with the ligand and membranes containing hERG channel, incubated for 2 hrs at RT and the fluorescence polarization was measured using 530 / 590 nm ex/em filters using the Synergy 2 plate reader (Biotek)."}, "[5]": {"tested_on": "C2C12 cells", "experiment": "C2C12 host cell cytotoxicity (cell ratio) in HCS assay", "format": "cell-based, Mouse", "conditions": "CC50 cell line (C2C12)/EC50 T. cruzi", "protocol": "(§2) For the evaluation of the activity against T. cruzi amastigotes, high-content screening (HCS) was designed. In summary, 100 μL of host C2C12 cells (ATCC) were seeded in clear bottom black 96-well plates at a density of 2.5 x 10^4 cells/mL (2.5 × 10^3 cells/well). […] The parasites were allowed to infect for a 24 hr period, after which compounds were added in a volume of 50 μL. […] After 72 hrs of compound incubation, the wells were fixed with 4% paraformaldehyde for 15 to 30 mins. The plates were then washed once with deionized water and stained with a solution of DAPI (3 μM) for 1 hour. Plates were imaged in an INCell 2000 (GE Healthcare) high-content analyser by taking 16 pictures per well at 20 X objective amplification. Images were analysed with INCell Developer software (GE Healthcare) using the segmentation of host cell nuclei and parasite kinetoplast DNA. The measurement output used was the average number of parasites per cell calculated by the ratio of host cell nuclei/parasite kinetoplast DNA."}, "[6]": {"experiment": "C2C12 host cell cytotoxicity (cell ratio) in HCS assay", "format": "cell-based, Mouse", "conditions": "mouse, cell ratio, 72 h; read-out: C2C12 Cytotoxicity (CC50 ± SD)", "protocol": "as §2"}, "[7]": {"tested_on": "MDCK cells", "experiment": "MTT cytotoxicity on MDCK cells", "format": "cell-based", "conditions": "MTT", "protocol": "as §1"}, "[8]": {"experiment": "MTT cytotoxicity on MDCK cells", "format": "cell-based", "conditions": "dog, MDCK; CC50 cell line / EC50 T. cruzi; read-out: Selectivity Index, MDCK cells", "protocol": "as §1"}, "[9]": {"molecular_target": "T1, hERG channel (Homo sapiens, UniProt Q12809)", "T1 construct": "purchased Invitrogen", "T1 sequence (Q12809 whole entry)": "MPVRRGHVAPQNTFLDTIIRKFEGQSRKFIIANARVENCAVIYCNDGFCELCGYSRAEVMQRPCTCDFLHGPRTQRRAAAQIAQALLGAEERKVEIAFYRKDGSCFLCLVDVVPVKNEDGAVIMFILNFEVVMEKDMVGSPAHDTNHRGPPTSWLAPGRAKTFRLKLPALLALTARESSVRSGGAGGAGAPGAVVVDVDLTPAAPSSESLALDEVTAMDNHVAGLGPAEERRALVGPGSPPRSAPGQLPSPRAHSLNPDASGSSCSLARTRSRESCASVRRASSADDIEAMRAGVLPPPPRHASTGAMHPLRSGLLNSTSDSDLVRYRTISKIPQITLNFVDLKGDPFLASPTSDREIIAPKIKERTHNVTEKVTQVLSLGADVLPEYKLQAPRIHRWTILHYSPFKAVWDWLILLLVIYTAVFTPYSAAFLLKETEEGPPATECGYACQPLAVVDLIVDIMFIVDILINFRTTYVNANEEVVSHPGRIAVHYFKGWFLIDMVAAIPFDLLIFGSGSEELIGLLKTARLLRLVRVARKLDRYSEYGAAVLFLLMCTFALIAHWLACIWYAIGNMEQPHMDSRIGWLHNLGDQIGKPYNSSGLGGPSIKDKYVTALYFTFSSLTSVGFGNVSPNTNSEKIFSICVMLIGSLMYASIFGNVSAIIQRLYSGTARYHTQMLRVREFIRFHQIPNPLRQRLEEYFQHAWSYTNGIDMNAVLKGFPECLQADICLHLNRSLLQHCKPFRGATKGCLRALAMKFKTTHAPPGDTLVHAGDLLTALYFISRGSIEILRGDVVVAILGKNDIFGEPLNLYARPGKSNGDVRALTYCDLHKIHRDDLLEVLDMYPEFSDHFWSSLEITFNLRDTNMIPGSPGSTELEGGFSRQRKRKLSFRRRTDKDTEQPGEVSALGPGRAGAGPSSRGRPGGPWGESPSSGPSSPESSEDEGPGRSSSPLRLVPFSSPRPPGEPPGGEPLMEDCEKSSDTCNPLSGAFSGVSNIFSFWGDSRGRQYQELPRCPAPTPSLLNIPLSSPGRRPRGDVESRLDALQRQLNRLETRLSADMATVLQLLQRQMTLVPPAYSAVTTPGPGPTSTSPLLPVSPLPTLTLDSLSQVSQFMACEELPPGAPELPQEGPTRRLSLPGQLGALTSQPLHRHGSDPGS", "experiment": "Predictor hERG Fluorescence Polarization Assay", "format": "binding", "protocol": "as §1"}}, "note": "Entries after “also recorded” stand apart in the source; their conditions may differ.", "data": [{"smiles": "O=C1c2cccc3cccc(c23)C(=O)N1CCCNCCCCNCCCNCCCN1C(=O)c2cccc3cccc(c23)C1=O", "note": "[Compound 9, BNIP Spermidine]", "values": [{"measurement": "In vivo activity (bioluminescence signal vs vehicle)", "setting": "[1]", "result": "did not exhibit any in vivo activity; also recorded: lack of in vivo activity"}, {"measurement": "EC50 against T. cruzi epimastigotes WT", "setting": "[2]", "result": "moderate activity"}, {"measurement": "Aqueous solubility", "setting": "[3]", "result": "up to 70%"}, {"measurement": "Neurotoxicity (Neurons) cytotoxicity", "setting": "[4]", "result": "≥ 3.9", "unit": "µM"}, {"measurement": "Selectivity Index", "setting": "[5]", "result": 8.8}, {"measurement": "CC50 at 72 h", "setting": "[6]", "result": "24.5 ± 0.45", "unit": "µM"}, {"measurement": "Nephotoxicity (MDCK cells) cytotoxicity", "setting": "[7]", "result": "≥ 100", "unit": "µM"}, {"measurement": "selectivity ratio", "setting": "[8]", "result": 35.2}, {"measurement": "hERG channel functional", "setting": "[9]", "result": 99.6, "unit": "%"}, {"measurement": "Cardiotoxicity (hERG predictor)", "setting": "[9]; fluorescence polarization competition, 2 hrs RT", "result": "0.36 ± 0.51", "unit": "%"}]}]}
